Measurements taken from the supplement of paper PMC10307832.

Tests used:
Experiment in all cases: relative viability (nuclei count vs DMSO), 5 days (fraction); higher = more cells survive
AT-7519 + Luminespib = compound: O=C(NC1CCNCC1)c1n[nH]cc1NC(=O)c1c(Cl)cccc1Cl [AT-7519] + CCNC(=O)c1noc(-c2cc(C(C)C)c(O)cc2O)c1-c1ccc(CN2CCOCC2)cc1 [Luminespib] (partner 0.01 µM)
Procedure, shortened: (§1)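 Cells from lung cancer lines were seeded into 1536-well plates and, one day later, dosed by pin tool. Treatments were either a single drug or a fixed dose of an anchor drug with five library-drug doses (not always all listed) in √10 steps. After 5 days, nuclei were stained in a one-step fixation (final 0.05% Triton X-100, 1% formaldehyde, 1 ug/ml Hoechst) and counted on 4× images, and relative viability is the treated-to-vehicle nuclei ratio, as the median of duplicate plates.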

AT-7519 + Tozasertib = compound: O=C(NC1CCNCC1)c1n[nH]cc1NC(=O)c1c(Cl)cccc1Cl [AT-7519] + Cc1cc(Nc2cc(N3CCN(C)CC3)nc(Sc3ccc(NC(=O)C4CC4)cc3)n2)n[nH]1 [Tozasertib] (partner 0.1 µM)
Procedure, shortened: as §1

[1] = compound: C1=CC2=C(C=C(C(=C2N=C1)O)N=NC3=CC4=C(C=C3)C=C(C=C4)S(=O)(=O)O)S(=O)(=O)O + O=C(CCCCCCC(=O)Nc1ccccc1)NO [Vorinostat] (partner 1 µM)
Procedure, shortened: as §1

AT-7519 + Olaparib = compound: O=C(NC1CCNCC1)c1n[nH]cc1NC(=O)c1c(Cl)cccc1Cl [AT-7519] + O=C(c1cc(Cc2n[nH]c(=O)c3ccccc23)ccc1F)N1CCN(C(=O)C2CC2)CC1 [Olaparib] (partner 8 µM)
Procedure, shortened: as §1

Cell Line	relative viability (AT-7519 + Luminespib; first compound 0.01 µM)	relative viability (AT-7519 + Luminespib; first compound 0.03162 µM)	relative viability (AT-7519 + Luminespib; first compound 0.3162 µM)	relative viability (AT-7519 + Luminespib; first compound 1 µM)	relative viability (AT-7519 + Tozasertib; first compound 0.01 µM)	relative viability (AT-7519 + Tozasertib; first compound 0.03162 µM)	relative viability (AT-7519 + Tozasertib; first compound 0.3162 µM)	relative viability (AT-7519 + Tozasertib; first compound 1 µM)	relative viability ([1]; first compound 0.08 µM)	relative viability ([1]; first compound 0.253 µM)	relative viability ([1]; first compound 0.8 µM)	relative viability ([1]; first compound 2.53 µM)	relative viability ([1]; first compound 8 µM)	relative viability (AT-7519 + Olaparib; first compound 0.01 µM)	relative viability (AT-7519 + Olaparib; first compound 0.03162 µM)	relative viability (AT-7519 + Olaparib; first compound 0.3162 µM)	relative viability (AT-7519 + Olaparib; first compound 1 µM)
EMC-BAC-2	1.21	1.17	1.19	1.14	0.339	0.286	0.302	0.308	0.377	0.458	0.467	0.441	0.45	0.508	0.48	0.506	0.56
LU99A	0.274	0.221	0.223	0.193	0.26	0.276	0.297	0.218	0.534	0.445	0.63	0.494	0.53	0.278	0.247	0.228	0.229
ABC-1	0.75	0.582	0.347	0.206	0.199	0.155	0.189	0.195	0.875	1.12	0.943	1.49	0.982	1.02	0.646	0.608	0.454
NCI-H2170	0.398	0.636	0.807	0.599	0.672	0.751	0.762	0.651	0.975	0.811	0.862	0.914	0.784	0.585	0.59	0.608	0.562
NCI-H1299	–	–	–	–	–	–	–	–	–	–	–	–	–	0.97	1	0.935	1.09
EBC-1	–	–	–	–	–	–	–	–	–	–	–	–	–	0.88	0.773	0.664	0.546
NCI-H2347	0.83	0.268	0.392	0.39	0.635	0.512	0.425	0.442	0.691	0.621	0.59	0.408	0.729	0.619	0.506	0.561	0.41
NCI-H1993	0.788	0.823	0.844	0.388	0.547	0.584	0.544	0.506	0.844	0.866	0.798	0.783	0.788	1.04	0.833	0.973	0.769
NCI-H322M	0.893	0.824	0.462	0.305	0.493	0.497	0.361	0.196	0.967	0.825	0.864	0.856	0.905	0.746	0.739	0.249	0.643
NCI-H838	0.239	0.292	0.276	0.13	0.315	0.277	0.291	0.187	0.755	0.681	0.712	0.688	0.71	0.812	0.766	0.576	0.0987
HARA	0.71	0.533	0.412	0.398	0.129	0.0981	0.147	0.155	0.631	0.383	0.565	0.493	0.551	0.753	0.478	0.482	0.301
NCI-H2087	0.178	0.16	0.141	0.116	0.255	0.269	0.282	0.0867	0.69	0.804	0.795	0.702	0.676	0.607	0.515	0.421	0.0663
NCI-H1437	1.17	1.2	1.09	0.745	0.418	0.399	0.402	0.34	0.901	0.857	0.851	0.923	0.841	0.644	0.643	0.574	0.279
NCI-H1648	–	–	–	–	0.37	–	0.371	0.405	–	0.825	–	–	0.479	0.852	–	0.696	0.49
NCI-H1792	–	0.453	0.359	0.613	–	–	–	–	–	–	–	–	–	0.282	0.313	0.522	0.311
ChaGo-K-1	0.607	0.544	0.669	0.522	0.224	0.23	0.215	0.204	0.827	0.812	0.698	0.723	0.494	0.379	0.403	0.431	0.403
NCI-H650	0.75	0.7	0.838	0.611	0.784	0.646	0.716	0.675	0.435	0.472	0.416	0.413	0.175	0.413	0.384	0.439	0.349
COR-L23	1	0.867	0.273	0.116	0.177	0.189	0.148	0.144	0.484	0.396	0.418	0.449	0.599	0.362	0.361	0.264	0.102
COR-L 105	0.776	0.942	0.68	0.521	0.327	0.382	0.378	0.413	0.852	0.86	0.742	0.866	0.881	0.71	0.714	0.726	0.564
A549	–	–	–	–	–	–	–	–	–	–	–	–	–	0.312	0.309	0.315	0.368
NCI-H1563	0.526	0.542	0.599	0.538	–	–	–	–	–	–	–	–	–	–	–	–	–
HCC-78	–	–	–	–	0.631	0.451	0.49	0.326	0.437	0.471	0.458	0.437	0.434	1.01	0.758	0.806	0.666
IA-LM	–	–	–	–	–	–	–	–	1.09	0.95	0.97	1.04	0.935	0.866	0.892	0.834	0.631
NCI-H1703	–	–	–	–	–	–	–	–	–	–	–	–	–	0.454	0.435	0.388	0.175
